Data on 6 molecules can be found in patent publication US20090252716A1, “METHODS FOR IDENTIFYING NUCLEAR RECEPTOR/LIGAND COMBINATIONS FOR TARGETING BRAIN TUMOR STEM CELLS AND FOR THEIR USE” (Clarian Health Partners, Inc. d/b/a Methodist Research …, priority 2008, published 2009).

Experiment [1] relates to U87MG and T98G human glioma cells, their respective BTSC's, and CD133+ cells. The experiment in a line: Proliferation of glioma cells, BTSC's and CD133+ cells, result in words. It is filed as cell-based. As to the method: (§1) The use of nuclear receptor agonists in the treatment of brain tumors was examined by testing the effect of the specific ligands on the proliferation of brain tumor and BTSC'S. Prior to studying the anti-tumor effect of melatonin, it was necessary to determine the viability of glioma and BTSC's in the cultures used in this study. […] Their proliferation was measured by WST-1 assay. The ligands for all six nuclear receptors induced anti-proliferative activity in brain tumor stem cells as well as human glioma cells. It was also noted that the selected nuclear receptor agonists induced anti-tumor activity in brain tumor stem cells and that the different agonists for the highly altered nuclear hormone receptors provided different levels of inhibition for brain tumor cells and BTSC's in cultures. As a result, the nuclear hormone receptors having altered expression and activation profile in BTSC can be selected to specifically target BTSC's. Additional information regarding the individual studies is provided below:
(§2) Proliferation assay. Proliferation of gliosphere cells was measured using WST-1 assay (Roche Applied Sciences, Indianapolis, Ind.) and ^3H thymidine uptake assay. Briefly, T98G and U87MG glioma and gliosphere cells were cultured in 96-well tissue culture plates (1×10^4/200 μl/well) in neurobasal medium with B27 serum supplement in the presence of 10 ng/ml EGF+bFGF and increasing doses of nuclear receptors in 5% CO2-incubator at 37° C. After 48 hrs, WST-1 reagent ([…]) was added and the absorbance was measured at 460 nm using 2100 microplate reader (Alpha Diagnostics Inc., San Antonio, Tex.) as a measure of viable cell count. This assay is based on the cleavage of the tetrazolium salt, WST-1, by mitochondrial dehydrogenases in viable cells and a decrease in OD corresponds to decrease in viable cell count. In some experiments, ^3H thymidine (0.5 μCi/ml) was added at 48 hours, the cells harvested after 72 hours using a Tomtech harvester 96 (Hamden, Conn., USA) and the amount of ^3H thymidine uptake counted on a Perkin Elmer Microbeta liquid scintillation counter to provide a measure of proliferation.

In a further experiment the test system is U87MG tumorspheres. The experiment in a line: Tumorsphere formation from U87MG cells in NBM. It is filed as cell-based, human. To be noted: NBM with B27, EGF+bFGF. As to the method:
FIG. 9B, first panel, illustrates cells of U87MG cultured in DMEM. Cells cultured in NBM with B27 supplement in the presence of EGF+bFGF developed into tumorspheres within 3-5 days (see FIG. 9A, middle panel).
(§3) Gliosphere culture. To generate gliospheres, the following standardized method was utilized. Briefly, U87MG and T98G glioblastoma cells were dissociated from DMEM cultures using trypsin-EDTA solution and reseeded in neurobasal medium (NBM) supplemented with B27 in the presence of 10 ng/ml bFGF and EGF. The cells (5×10^4/ml/well) were cultured in 12 well plates in 5% CO2-incubator at 37° C. with a medium change of every 2-3 days. The cells were photographed (200× and 400×) under phase contrast microscope (AX70, Olympus Optical, Japan) after 10-12 days. The primary human glioblastoma cells were also dissociated from DMEM using trypsin-EDTA. The cells were cultured (1×10^5 cells/ml/well) in neurobasal medium (NBM) supplemented with B27 in the presence of 10 ng/ml of bFGF and EGF in 12 well plates in 5% CO2-incubator at 37° C. The resulting tumorspheres were photographed under light microscope.

The subject of a further experiment is T98G human glioma cells. Nature of the experiment: WST-1 proliferation assay, T98G glioma cells. It counts as cell-based. To be noted: anti-tumor activity, 48 hours, read-out: EC50, T98-glioma. As to the method:
as §1
(§4) Cell culture. The U87MG and T98G brain tumor cell-lines, established from human glioblastoma (Ponten, et al., 1968) were obtained from American Type Culture Collection (ATCC, Manassas, Va.). The cells were cultured in Dulbecco's Modified Eagle Medium (DMEM) (Invitrogen, California, USA) supplemented with 10% FBS, 1 mM Sodium pyruvate, 100 U/ml penicillin G, 100 μg/ml Streptomycin, 2 mM glutamine, 1 mM MEM nonessential amino acids and 50 μM 2-mercaptoethanol in 5% CO2 incubator at 37° C. The cells were dissociated using 0.25% trypsin, 0.53 mM EDTA solution and sub-cultured once in 3-5 days. Primary brain tumor tissue/cells were also obtained from the tissue repository at Methodist Research Institute and cultured (1×10^5 cells/ml/well) in DMEM medium supplemented with 10% FBS and sub-cultured once in 10-12 days.
as §2, with “This assay is based on the cleavage of the tetrazolium salt, WST-1, by mitochondrial dehydrogenases in viable cells and a decrease in OD corresponds to decrease in viable cell count.” left out

Experiment [2] concerns U87 BTSC's (brain tumor stem cells). The experiment in a line: WST-1 proliferation assay, U87 BTSC's. It counts as cell-based. To be noted: Homo sapiens, anti-tumor activity, 48 hours. As to the method: (§5) The use of nuclear receptor agonists in the treatment of brain tumors was examined by testing the effect of the specific ligands on the proliferation of brain tumor and BTSC'S. Prior to studying the anti-tumor effect of melatonin, it was necessary to determine the viability of glioma and BTSC's in the cultures used in this study. […] Their proliferation was measured by WST-1 assay. […] Additional information regarding the individual studies is provided below:
as §3
(§6) Proliferation assay. Proliferation of gliosphere cells was measured using WST-1 assay (Roche Applied Sciences, Indianapolis, Ind.) and ^3H thymidine uptake assay. […] After 48 hrs, WST-1 reagent ([…]) was added and the absorbance was measured at 460 nm using 2100 microplate reader (Alpha Diagnostics Inc., San Antonio, Tex.) as a measure of viable cell count. […] In some experiments, ^3H thymidine (0.5 μCi/ml) was added at 48 hours, the cells harvested after 72 hours using a Tomtech harvester 96 (Hamden, Conn., USA) and the amount of ^3H thymidine uptake counted on a Perkin Elmer Microbeta liquid scintillation counter to provide a measure of proliferation.
For orientation: Tetrazolium dyes change colour on reduction, which living cells bring about.

The next experiment deals with T98G-CD133+ cells. The experiment in a line: WST-1 proliferation assay, T98G-CD133+ cells. It counts as cell-based. To be noted: Homo sapiens, anti-tumor activity, 48 hours. How it is done: as §1
(§7) Isolation and expansion of CD133+ BTSC: The CD133+ BTSC were isolated from human glioblastoma cells by magnetic bead technique using CD133 antibody (Miltenyi Biotec, Auburn, Calif., USA). The U87MG and T98G glioma cells and tumor spheres expanded as described above were dissociated by treatment with Trypsin-EDTA solution at 37° C. for 10 minutes. The cells (1×10^7 cells) were washed in cold sterile PBS, re-suspended in 100 μl blocking buffer (PBS, pH 7.2, 0.5% BSA, 2 mM EDTA) with 50 μl of FcR blocking reagents (Miltenyi Biotech, Auburn, Calif., USA) and incubated at 4° C. for 30 minutes. The cells were washed and re-suspended in 200 μl of anti-PE microbeads in the buffer and incubated at 4° C. for 30 minutes. The CD133+ cells were separated by passing through an LS column in the midi Macs separation unit. The column effluent was collected to provide a CD133 negative population. The columns were washed with buffer, removed from the Mac separation unit and placed in a sterile 15 ml tube. […] The cells obtained were counted and expanded in culture or used directly for the experiments described herein.
as §6

In a further experiment the test system is U87-CD133+ cells. The experiment in a line: WST-1 proliferation assay, U87-CD133+ cells. To be noted: Homo sapiens, anti-tumor activity, 48 hours. It is filed as cell-based. How it is done:
as §1, §7, §6

A further experiment deals with T98G tumorspheres. Nature of the experiment: Tumorsphere formation from T98G glioblastoma cells in NBM. It is filed as cell-based, human. To be noted: NBM with B27, EGF+bFGF. How it is done: Initially culture conditions were established for expanding BTSC's as tumorspheres from brain tumor cells in culture. […] The resulting tumorspheres increased substantially in size within 7 to 10 days. FIG. 1 illustrates typical glioblastoma cells cultured in DMEM supplemented with 10% FBS and the corresponding tumorspheres cultured in neurobasal medium (NBM) with B27 supplement and 10 ng/ml EGF+bFGF. The tumorspheres illustrated in FIG. 1 were photographed after 10 days (200×).
as §3

The next experiment concerns U87MG human glioma cells. Nature of the experiment: WST-1 proliferation assay, U87 glioma cells. To be noted: U-87 MG, anti-tumor activity, 48 hours. It counts as cell-based. As to the method:
as §1, §4
as §2, with “This assay is based on the cleavage of the tetrazolium salt, WST-1, by mitochondrial dehydrogenases in viable cells and a decrease in OD corresponds to decrease in viable cell count.” left out

The test system of experiment [3] is T98G BTSC's (brain tumor stem cells). Nature of the experiment: WST-1 proliferation assay, T98G BTSC's. To be noted: Homo sapiens, anti-tumor activity, 48 hours, read-out: EC50, T98-BTSC. It is filed as cell-based. How it is done: as §5, §3, §6

Regarding `CCCCCC=CC=C1C(=O)C=C[C@@H]1CC=CCCCC(=O)O` [15d-PGJ2, 15-deoxy Δ^12,14-prostaglandin J2], the “proliferation of glioma cells and BTSC's” value in [1] is on record as “inhibited the proliferation”. Moreover, the “tumorsphere size and number, U87MG” value with U87MG tumorspheres is “significantly decreased”.
Consider `CCCC(=O)SCCNC(=O)CCNC(=O)[C@H](O)C(C)(C)COP(=O)(O)OP(=O)(O)OC[C@H]1O[C@@H](n2cnc3c(N)ncnc32)[C@H](O)[C@@H]1OP(=O)(O)O` [Butyryl CoA], for which the EC50 (usually the concentration giving half of the maximal effect) is 85 ± 5.59 µM in the experiment with T98G human glioma cells; 72.5 ± 1.57 µM in [2]; 54.7 ± 5.76 µM in the experiment on T98G-CD133+ cells; 17.6 ± 0.29 µM in the experiment with U87-CD133+ cells; 20.3 ± 0.57 µM in the experiment on U87MG human glioma cells; 85.5 ± 22.4 µM in experiment [3]. In addition, the “proliferation of glioma cells and BTSC's” value in [1] is “dose-dependent decrease in the proliferation”. The “number and size of T98G tumorspheres” value with T98G tumorspheres is “significant and dose-dependent decrease”.
For `Clc1ccc(-c2nc3sccn3c2/C=N/OCc2ccc(Cl)c(Cl)c2)cc1` [CITCO], in [1], the “proliferation of glioma cells and BTSC's” value is “inhibits the proliferation”. In the experiment on T98G tumorspheres, the “number and size of T98G tumorspheres” value was “significant and dose-dependent decrease”.
As to `O=C(O)Cc1cccc(OCCCN(Cc2cccc(C(F)(F)F)c2Cl)CC(c2ccccc2)c2ccccc2)c1` [GW3965], the EC50 with T98G human glioma cells worked out at 4.85 ± 1 µM; in experiment [2], 1.55 ± 0.43 µM; in the experiment with T98G-CD133+ cells, 3.28 ± 0.64 µM; in the experiment on U87-CD133+ cells, 2.96 ± 0.21 µM; in the experiment on U87MG human glioma cells, 4.22 ± 0.23 µM; in experiment [3], 12.2 ± 3.04 µM. Also, the “proliferation of glioma cells and BTSC's” value in experiment [1] is on record as “inhibits the proliferation”. In the experiment with T98G tumorspheres, the “number and size of T98G tumorspheres” value was “significant and dose-dependent decrease”.
With `COc1ccc2[nH]cc(CCNC(C)=O)c2c1` [Melatonin], the EC50 was found to be 31 ± 12 µM with T98G human glioma cells; 7.91 ± 1.34 µM in experiment [2]; 2.45 ± 0.43 µM in the experiment on T98G-CD133+ cells; 2.6 ± 0.25 µM in the experiment with U87-CD133+ cells; 18.66 ± 0.18 µM in the experiment with U87MG human glioma cells; 44.7 ± 6.18 µM in experiment [3]. The “proliferation of glioma cells and BTSC's” value in experiment [1] is given as “inhibits the proliferation”. In addition, the “number and size of T98G tumorspheres” value with T98G tumorspheres was “significant and dose-dependent decrease”.
On to `CO[C@H]1/C=C/O[C@@]2(C)Oc3c(C)c(O)c4c(O)c(c(/C=N/N5CCN(C)CC5)c(O)c4c3C2=O)NC(=O)/C(C)=C\C=C\[C@H](C)[C@H](O)[C@@H](C)[C@@H](O)[C@@H](C)[C@H](OC(C)=O)[C@@H]1C` [Rifampicin], for which the EC50 in the experiment with T98G human glioma cells came to 12.8 ± 1.97 µM; in the experiment with T98G-CD133+ cells, 1.99 ± 0.47 µM; in the experiment with U87-CD133+ cells, 1.2 ± 0.2 µM; in the experiment on U87MG human glioma cells, 25.4 ± 4 µM.
